Data: ChEMBL document CHEMBL3797151, “Design, synthesis, assessment, and molecular docking of novel pyrrolopyrimidine (7-deazapurine) derivatives as non-nucleoside hepatitis C virus NS5B polymerase inhibitors” (Bioorg Med Chem, 2016)

What was measured:
Hepatitis C virus [1] = experiment: Antiviral activity against HCV genotype 4a ED-43/SG-feo (VYG) replicons infected in human Huh7.5 cells assessed as inhibition of viral replication after 72 hrs by immunofluorescence assay; type: functional, organism-based, Hepacivirus hominis; conditions: Huh-7, 72 h
[2] = Cytotoxicity against human Huh7.5 cells infected with HCV genotype 4a assessed as cell viability after 72 hrs by trypan blue dye-based phase contrast microscopy; conditions: Huh-7, 72 h
[3] = Cytotoxicity against human Huh7.5 cells infected with HCV genotype 4a assessed as morphological changes after 72 hrs by inverted light microscopy; type: cell-based, Huh-7
Hepatitis C virus [4] = experiment: Antiviral activity against HCV genotype 4a ED-43/SG-feo (VYG) replicons infected in human Huh7.5 cells assessed as inhibition of viral replication at non-toxic dose after 72 hrs by immunofluorescence assay; type: functional, Hepacivirus hominis, Huh-7

IC50 (Hepatitis C virus [1]) [µM] | Structure (SMILES) | CC50 [2] [µM] | CC50 at 72 h [3] [µM] | inhibition (INH) (Hepatitis C virus [4]) [%]
> 150 | Cc1cc(C)n(-c2ncnc3c2c(-c2ccccc2)c(-c2ccccc2)n3-c2cccc(Cl)c2)n1 | 147 | 147 | –
108 | Clc1ccc(-n2c(-c3ccccc3)c(-c3ccccc3)c3c(Cl)ncnc32)cc1 | 120 | 120 | 73.3
> 150 | Clc1cccc(-n2c(-c3ccccc3)c(-c3ccccc3)c3c(Cl)ncnc32)c1 | 168 | 168 | 0
> 150 | Cc1nc2c(c(-c3ccccc3)c(-c3ccccc3)n2-c2ccc(Cl)cc2)c(=O)[nH]1 | 97 | 97 | –
> 150 | Cc1ccc(Nc2ncnc3c2c(-c2ccccc2)c(-c2ccccc2)n3-c2ccc(Cl)cc2)cc1 | 123 | 123 | –
> 150 | Clc1ccc(-n2c(-c3ccccc3)c(-c3ccccc3)c3c(Nc4ccccc4)ncnc32)cc1 | 127 | 127 | –
> 150 | O=c1[nH]nc2c3c(-c4ccccc4)c(-c4ccccc4)n(-c4ccc(Cl)cc4)c3ncn12 | 160 | 160 | –
> 150 | S=c1[nH]nc2c3c(-c4ccccc4)c(-c4ccccc4)n(C4CCCCC4)c3ncn12 | 188 | 188 | –
> 150 | S=c1[nH]cnc2c1c(-c1ccccc1)c(-c1ccccc1)n2C1CCCCC1 | 130 | 130 | –
> 150 | COc1ccc(/C=N/Nc2ncnc3c2c(-c2ccccc2)c(-c2ccccc2)n3-c2cccc(Cl)c2)cc1 | 151 | 151 | –
> 150 | C(=N\Nc1ncnc2c1c(-c1ccccc1)c(-c1ccccc1)n2C1CCCCC1)/c1ccccc1 | 148 | 148 | –
> 150 | Clc1ccc(/C=N/Nc2ncnc3c2c(-c2ccccc2)c(-c2ccccc2)n3C2CCCCC2)cc1 | 158 | 158 | –
> 150 | S=c1[nH]cnc2c1c(-c1ccccc1)c(-c1ccccc1)n2-c1cccc(Cl)c1 | 145 | 145 | –
> 150 | Cc1nnc2c3c(-c4ccccc4)c(-c4ccccc4)n(-c4ccc(Cl)cc4)c3ncn12 | 138 | 138 | –
> 150 | Clc1ccc(-n2c(-c3ccccc3)c(-c3ccccc3)c3c(N/N=C/c4ccccc4)ncnc32)cc1 | 140 | 140 | –
82.1 | Cc1ccccc1Nc1ncnc2c1c(-c1ccccc1)c(-c1ccccc1)n2-c1ccc(Cl)cc1 | 144 | 144 | 90
> 150 | NNc1ncnc2c1c(-c1ccccc1)c(-c1ccccc1)n2-c1cccc(Cl)c1 | 146 | 146 | 0

Continued, molecule first:

Structure (SMILES) | IC50 (Hepatitis C virus [1]) [µM] | CC50 [2] [µM] | CC50 at 72 h [3] [µM] | inhibition (INH) (Hepatitis C virus [4]) [%]
CC(=O)Nc1c(C#N)c(-c2ccccc2)c(-c2ccccc2)n1C1CCCCC1 | > 150 | 183 | 183 | –
CC(=O)Nc1c(C#N)c(-c2ccccc2)c(-c2ccccc2)n1-c1cccc(Cl)c1 | > 150 | 146 | 146 | –
Cc1nc2c(c(-c3ccccc3)c(-c3ccccc3)n2-c2cccc(Cl)c2)c(=O)[nH]1 | > 150 | 97 | 97 | –
N#Cc1c(-c2ccccc2)c(-c2ccccc2)n(-c2cccc(Cl)c2)c1N | > 150 | 189 | 189 | –
Cc1ccccc1Nc1ncnc2c1c(-c1ccccc1)c(-c1ccccc1)n2-c1cccc(Cl)c1 | 92.4 | 144 | 144 | 76.7
Clc1ccc(/C=N/Nc2ncnc3c2c(-c2ccccc2)c(-c2ccccc2)n3-c2cccc(Cl)c2)cc1 | 102 | 131 | 131 | 63.3
N#Cc1c(-c2ccccc2)c(-c2ccccc2)n(-c2ccc(Cl)cc2)c1N | > 150 | 189 | 189 | –
Cc1cccc(Nc2ncnc3c2c(-c2ccccc2)c(-c2ccccc2)n3-c2ccc(Cl)cc2)c1 | > 150 | 1020 | 1020 | –
Clc1cccc(-n2c(-c3ccccc3)c(-c3ccccc3)c3c(N/N=C/c4ccccc4)ncnc32)c1 | > 150 | 140 | 140 | –
O=c1[nH]cnc2c1c(-c1ccccc1)c(-c1ccccc1)n2-c1cccc(Cl)c1 | > 150 | 151 | 151 | –
CC(=O)Nc1c(C#N)c(-c2ccccc2)c(-c2ccccc2)n1-c1ccc(Cl)cc1 | > 150 | 146 | 146 | –
NNc1ncnc2c1c(-c1ccccc1)c(-c1ccccc1)n2C1CCCCC1 | > 150 | 157 | 157 | –
Clc1cccc(-n2c(-c3ccccc3)c(-c3ccccc3)c3c2ncn2cnnc32)c1 | > 150 | 190 | 190 | –
Cc1cccc(Nc2ncnc3c2c(-c2ccccc2)c(-c2ccccc2)n3C2CCCCC2)c1 | > 150 | 131 | 131 | –
Cc1cc(C)n(-c2ncnc3c2c(-c2ccccc2)c(-c2ccccc2)n3C2CCCCC2)n1 | > 150 | 156 | 156 | –
NNc1ncnc2c1c(-c1ccccc1)c(-c1ccccc1)n2-c1ccc(Cl)cc1 | > 150 | 146 | 146 | 0
Clc1cccc(-n2c(-c3ccccc3)c(-c3ccccc3)c3c(Nc4ccccc4)ncnc32)c1 | > 150 | 148 | 148 | –
Cc1nnc2c3c(-c4ccccc4)c(-c4ccccc4)n(-c4cccc(Cl)c4)c3ncn12 | > 150 | 161 | 161 | –
c1ccc(Nc2ncnc3c2c(-c2ccccc2)c(-c2ccccc2)n3C2CCCCC2)cc1 | > 150 | 158 | 158 | –
N#Cc1c(-c2ccccc2)c(-c2ccccc2)n(C2CCCCC2)c1N | > 150 | 176 | 176 | –

Structure (SMILES) | IC50 (Hepatitis C virus [1]) [µM] | CC50 [2] [µM] | CC50 at 72 h [3] [µM] | inhibition (INH) (Hepatitis C virus [4]) [%]
Cc1nnc2c3c(-c4ccccc4)c(-c4ccccc4)n(C4CCCCC4)c3ncn12 | > 150 | 172 | 172 | –
COc1ccc(/C=N/Nc2ncnc3c2c(-c2ccccc2)c(-c2ccccc2)n3-c2ccc(Cl)cc2)cc1 | > 150 | 113 | 113 | –
Cc1ccccc1Nc1ncnc2c1c(-c1ccccc1)c(-c1ccccc1)n2C1CCCCC1 | > 150 | 153 | 153 | –
Clc1ccc(-n2c(-c3ccccc3)c(-c3ccccc3)c3c2ncn2cnnc32)cc1 | > 150 | 190 | 190 | –
S=c1[nH]cnc2c1c(-c1ccccc1)c(-c1ccccc1)n2-c1ccc(Cl)cc1 | > 150 | 121 | 121 | –
Cc1cc(C)n(-c2ncnc3c2c(-c2ccccc2)c(-c2ccccc2)n3-c2ccc(Cl)cc2)n1 | > 150 | 147 | 147 | –
O=c1[nH]nc2c3c(-c4ccccc4)c(-c4ccccc4)n(C4CCCCC4)c3ncn12 | > 150 | 171 | 171 | –
Cc1nc2c(c(-c3ccccc3)c(-c3ccccc3)n2C2CCCCC2)c(=O)[nH]1 | > 150 | 130 | 130 | –
Cc1cccc(Nc2ncnc3c2c(-c2ccccc2)c(-c2ccccc2)n3-c2cccc(Cl)c2)c1 | > 150 | 103 | 103 | –
O=c1[nH]nc2c3c(-c4ccccc4)c(-c4ccccc4)n(-c4cccc(Cl)c4)c3ncn12 | > 150 | 183 | 183 | –
c1ccc(-c2c(-c3ccccc3)n(C3CCCCC3)c3ncn4cnnc4c23)cc1 | > 150 | 178 | 178 | –
S=c1[nH]nc2c3c(-c4ccccc4)c(-c4ccccc4)n(-c4cccc(Cl)c4)c3ncn12 | > 150 | 184 | 184 | –
COc1ccc(/C=N/Nc2ncnc3c2c(-c2ccccc2)c(-c2ccccc2)n3C2CCCCC2)cc1 | > 150 | 140 | 140 | –
S=c1[nH]nc2c3c(-c4ccccc4)c(-c4ccccc4)n(-c4ccc(Cl)cc4)c3ncn12 | > 150 | 138 | 138 | –
O=c1[nH]cnc2c1c(-c1ccccc1)c(-c1ccccc1)n2C1CCCCC1 | > 150 | 190 | 190 | –
O=c1[nH]cnc2c1c(-c1ccccc1)c(-c1ccccc1)n2-c1ccc(Cl)cc1 | > 150 | 151 | 151 | –
Clc1ccc(/C=N/Nc2ncnc3c2c(-c2ccccc2)c(-c2ccccc2)n3-c2ccc(Cl)cc2)cc1 | 93.6 | 131 | 131 | 70
Clc1ncnc2c1c(-c1ccccc1)c(-c1ccccc1)n2C1CCCCC1 | > 150 | 155 | 155 | –
Cc1ccc(Nc2ncnc3c2c(-c2ccccc2)c(-c2ccccc2)n3-c2cccc(Cl)c2)cc1 | > 150 | 123 | 123 | –
Cc1ccc(Nc2ncnc3c2c(-c2ccccc2)c(-c2ccccc2)n3C2CCCCC2)cc1 | > 150 | 153 | 153 | –
